Assay results as given in patent US8513227B2, “Inhibition of inflammatory cytokine production with tanshinones” (The Feinstein Institute for Medical Research, priority 2006, dated 2013).

Tested on: lethal sepsis
Assay: Lethal sepsis induced by cecal ligation and puncture (CLP) in Balb/C mice
Assay type: in vivo
Protocol: Animal models of endotoxemia and sepsis. This study was approved and performed in accordance with the guidelines for the care and use of laboratory animals at the Feinstein Institute for Medical Research, Manhasset, N.Y. Endotoxemia was induced in Balb/C mice (male, 7-8 weeks) by intraperitoneal injection of bacterial endotoxin (LPS, 15 mg/kg) as previously described (Chen et al. 2005; Wang et al. 1999; Wang et al. 2006). Sepsis was induced in male Balb/C mice (7-8 weeks, 20-25 g) or Sprague-Dawley rats (290-310 g) by cecal ligation and puncture (CLP) as previously described (Wang et al. 2006; Yang et al. 2002b). Herbal components were administered intraperitoneally into mice at indicated doses and time points, and mice were monitored for survival for up to two weeks. In parallel experiments, mice were euthanized to collect blood at 28 h (following two doses of herbal components at −0.5 and +24 h) after endotoxemia, and at 52 h (following two doses of herbal components at +24 and +48 h) after CLP.
TNF ELISA. The levels of TNF in the culture medium or serum were determined using commercial enzyme linked immunosorbent assay (ELISA) kits (Catalog no. MTA00, R & D Systems, Minneapolis, Minn.) with reference to standard curves of purified recombinant TNF at various dilutions as previously described (Chen et al. 2004; Rendon-Mitchell et al. 2003; Wang et al. 2006).
Nitric oxide assay. The levels of nitric oxide in the culture medium were determined indirectly by measuring NO^2− production with a colorimetric assay based on the Griess reaction (Rendon-Mitchell et al. 2003). NO2-concentrations were determined with reference to a standard curve generated with sodium nitrite at various dilutions.
HMGB1 western blotting analysis. The levels of HMGB1 in the culture medium or serum were determined by western blotting analysis as previously described (Chen et al. 2004; Rendon-Mitchell et al. 2003; Wang et al. 1999). The relative band intensity was quantified using NIH image 1.59 software to determine HMGB1 levels with reference to standard curves generated with purified HMGB1.
Tissue histology. At 48 hours after CLP, mice were euthanized in CO2 Chamber, and immediately perfused (transcardially) with phosphate buffer saline and 4% paraformaldehyde. Various tissues were harvested, sectioned, and stained with hematoxylin and eosin for morphology evaluation.

With `Cc1c(S(=O)(=O)[O-])oc2c1C(=O)C(=O)c1c-2ccc2c1CCCC2(C)C.[Na+]` [TSNIIA-SS, tanshinone IIA sodium sulfonate] the “signs of hepatic necrosis” value (15 mg/kg, histology 48 hours post onset of sepsis, control 2 out of 12 survivors) was “not observed in any of the 15 survivors”, the “circulating nitric oxide levels” value (52 h after the onset of sepsis, vehicle 18.0±4.5 μmol/L, n=3, P>0.05) was 15.5 ± 3.3 µmol/L and the “circulating TNF levels” value (52 h after the onset of sepsis, vehicle 65+15 ng/L, P>0.05) was 85+23 ng/L. The “animal survival rate, lethal sepsis” value (repeated administration at 24, 48, 72, 96 hours post sepsis, control 33%, P<0.05) was 73%, the “circulating HMGB1 levels in septic mice” value (repeated administration, 52 h post CLP, FIG. 7A, P<0.05) was “dose-dependently, and significantly attenuated” and the “survival rate, lethal sepsis” value (single i.p. dose 15 mg/kg 24 h after onset of sepsis, saline control 33%, P>0.05) was 50%.
